Active and inactive are the calls of the source.
Tests used:
[1] = target: T1, Probable nicotinate-nucleotide adenylyltransferase (Staphylococcus aureus (strain N315), UniProt P65502); format: functional, Staphylococcus aureus subsp. aureus N315; settings: read-out: IC50_Mean;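 on IC50 Mean: confirmatory dose-response retesting of NadD inhibitor hits first found in an ultra-high-throughput screen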
[2] = target: T1, Probable nicotinate-nucleotide adenylyltransferase; format: functional, Staphylococcus aureus subsp. aureus N315
Protein Wnt-3a = Protein Wnt-3a (Mus musculus, UniProt P27467); assay: antagonism of Wnt3a pathway luciferase reporter – Wnt-LIGHT cells, luminescence, selectivity assay for Gli-SUFU antagonist project, dose response (AID 651570); format: functional; settings: read-out: IC50_Mean;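 further: Wnt-LIGHT reporter cells stimulated with conditioned medium from Wnt3a-producing cells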
Protein Wnt-3a, sequence (P27467 whole entry): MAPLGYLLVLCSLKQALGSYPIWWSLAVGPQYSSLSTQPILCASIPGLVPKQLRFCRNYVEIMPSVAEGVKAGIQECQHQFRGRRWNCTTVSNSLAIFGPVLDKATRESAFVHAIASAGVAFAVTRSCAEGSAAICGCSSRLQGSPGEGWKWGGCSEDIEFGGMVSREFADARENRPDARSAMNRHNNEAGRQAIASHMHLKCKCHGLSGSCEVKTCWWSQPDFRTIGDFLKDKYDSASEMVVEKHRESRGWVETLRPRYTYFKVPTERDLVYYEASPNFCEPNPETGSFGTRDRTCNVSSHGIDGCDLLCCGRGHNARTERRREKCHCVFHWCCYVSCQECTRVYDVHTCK

INS1 = assay: INS-1E survival protection against cytokine death – cell-based, luminescence, retest, dose response (AID 449756); format: functional; settings: Rattus norvegicus;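 further: cell death triggered by IL-1 beta plus TNF-alpha plus IFN-gamma mixture; protective hits raise ATP signal compared with cytokine alone wells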
[3] = loss of viability in HepG2 cells – cell-based, CellTiter-Glo, cherry-picked, cytotoxicity control for Shn3 inhibitor project, dose response (AID 624134); format: functional
[4] = non-specific 3'UTR reporter inhibition in Clone20-Shn3RL – cell-based, Renilla luciferase, cherry-picked, counter-screen for Shn3 inhibitor project, dose response (AID 624133); format: functional
[5] = reduction of Shn3 3'UTR-driven luciferase in osteoblasts – cell-based, Clone20 osteoblasts, firefly luciferase, cherry-picked, dose response (AID 624132); format: functional;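 further: firefly luciferase luminescence from reporter carrying the Shn3 3'UTR in osteoblasts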
[6] = target: T2, Microphthalmia-associated transcription factor (Homo sapiens, UniProt O75030); assay: reducers of TRPM1 reporter luminescence, concentration series – cell-based, SK-MEL-5, cherry-picked, set 3, MITF inhibitor project, dose response (AID 493073); format: functional;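 further: SK-MEL-5 melanoma cells with luciferase driven by the MITF target TRPM1 promoter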
T2 sequence (O75030 whole entry): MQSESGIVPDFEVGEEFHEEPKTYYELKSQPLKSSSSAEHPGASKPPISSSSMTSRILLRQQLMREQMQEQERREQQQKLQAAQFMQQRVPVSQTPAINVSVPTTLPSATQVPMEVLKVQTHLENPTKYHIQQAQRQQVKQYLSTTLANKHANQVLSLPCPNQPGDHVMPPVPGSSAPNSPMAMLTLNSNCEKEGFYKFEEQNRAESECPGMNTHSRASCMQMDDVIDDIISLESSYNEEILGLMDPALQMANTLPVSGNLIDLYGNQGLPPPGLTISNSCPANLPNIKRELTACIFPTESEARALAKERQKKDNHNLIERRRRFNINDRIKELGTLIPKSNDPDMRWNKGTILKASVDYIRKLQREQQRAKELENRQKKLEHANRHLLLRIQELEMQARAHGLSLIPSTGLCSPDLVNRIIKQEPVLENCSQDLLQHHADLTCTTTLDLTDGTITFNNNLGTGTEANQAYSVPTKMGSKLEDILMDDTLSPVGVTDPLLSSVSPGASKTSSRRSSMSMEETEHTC

BJ [7] = assay: BJ-TERT fibroblast viability loss – cell-based, RAS-independent, luminescence, dose response (AID 1933); format: functional; settings: Homo sapiens
[8] = target: T3, Heat shock factor protein 1 (Mus musculus, UniProt P38532); assay: enhancement of HSF1-driven luciferase signal – cell-based, NIH3T3, luminescence, dose retest, confirmation (AID 435004); format: functional;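 further: stress induced by proteasome inhibitor MG132 added 30 min after compound; luciferase reporter driven by HSF1 response element in NIH3T3 cells; actives raise luminescence as potentiators of the MG132 stress response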
T3 sequence (P38532 whole entry): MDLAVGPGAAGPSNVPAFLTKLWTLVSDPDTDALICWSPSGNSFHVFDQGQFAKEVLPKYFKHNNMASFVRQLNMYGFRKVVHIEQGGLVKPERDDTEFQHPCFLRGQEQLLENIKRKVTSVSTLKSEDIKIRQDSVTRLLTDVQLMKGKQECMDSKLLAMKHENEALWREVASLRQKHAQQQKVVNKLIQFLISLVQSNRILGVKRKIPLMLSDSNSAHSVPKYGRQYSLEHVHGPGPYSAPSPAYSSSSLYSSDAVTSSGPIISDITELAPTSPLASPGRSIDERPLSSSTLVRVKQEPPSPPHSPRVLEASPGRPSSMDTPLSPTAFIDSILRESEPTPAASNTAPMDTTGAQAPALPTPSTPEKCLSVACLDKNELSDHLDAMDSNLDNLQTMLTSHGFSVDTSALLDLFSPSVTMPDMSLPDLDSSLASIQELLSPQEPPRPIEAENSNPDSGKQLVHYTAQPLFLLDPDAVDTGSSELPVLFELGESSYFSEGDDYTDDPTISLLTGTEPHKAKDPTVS

[9] = DRD fibroblast viability loss – cell-based, non-viral oncogenic, luminescence, dose response (AID 1934); format: functional; settings: Homo sapiens
[10] = target: Heat shock protein HSP 90-alpha (Homo sapiens, UniProt P07900); format: functional, organism-based
[11] = Fluorescence-based cell-based high throughput dose response assay for inhibitors of the interaction of nucleotide-binding oligomerization domain containing 2 (NOD2) and the receptor-interacting serine-threonine kinase 2 (RIPK2).; format: functional; settings: Homo sapiens
BJ [12] = assay: cells; format: functional, cell-based; settings: Homo sapiens
BJ [13] = assay: BJ-TERT-LT-ST fibroblast viability loss – cell-based, RAS-independent, luminescence, dose response (AID 1935); format: functional; settings: Homo sapiens;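 further: BJ fibroblasts immortalized with TERT plus LT and ST oncogenes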
[14] = target: Adenosylmethionine-8-amino-7-oxononanoate aminotransferase (Mycobacterium tuberculosis, UniProt P9WQ81); assay: Mycobacterium tuberculosis BioA enzyme inhibitor Measured in Biochemical System Using Plate Reader - 2163-02_Inhibitor_Dose_CherryPick_Activity.; format: functional, Mycobacterium tuberculosis UT205
Adenosylmethionine-8-amino-7-oxononanoate aminotransferase, sequence (P9WQ81 whole entry): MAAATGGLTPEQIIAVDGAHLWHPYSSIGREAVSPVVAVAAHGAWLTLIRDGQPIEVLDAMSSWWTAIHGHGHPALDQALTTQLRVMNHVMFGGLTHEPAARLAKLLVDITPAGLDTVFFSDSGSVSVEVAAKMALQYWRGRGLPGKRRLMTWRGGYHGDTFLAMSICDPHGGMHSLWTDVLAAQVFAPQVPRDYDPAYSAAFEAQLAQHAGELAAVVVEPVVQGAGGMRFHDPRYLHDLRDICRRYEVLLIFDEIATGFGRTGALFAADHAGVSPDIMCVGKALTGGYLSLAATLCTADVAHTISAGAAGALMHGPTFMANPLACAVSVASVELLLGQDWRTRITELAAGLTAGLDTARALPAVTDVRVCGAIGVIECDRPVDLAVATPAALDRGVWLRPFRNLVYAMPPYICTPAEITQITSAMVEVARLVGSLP

[15] = viability loss in HEK293 cells – cell-based, plate reader, cherry-picked samples, cytotoxicity control, dose response (AID 743446); format: functional
[16] = Luminescence Cell-Based Dose Response HTS to Identify Inhibitors of 5'UTR Stem-Loop Driven Prion Protein mRNA Translation in H4 Neuroglioblastoma Cells. [Related pubchem assays: 1827 (Project Summary), 1813 (Primary HTS)]; format: functional
[17] = target: T4, Sentrin-specific protease 8 (Homo sapiens, UniProt Q96LD8); format: functional;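 further: luminescence read-out of SENP8 inhibition, dose-response confirmation following an ultra-high-throughput screen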
T4 sequence (Q96LD8 whole entry): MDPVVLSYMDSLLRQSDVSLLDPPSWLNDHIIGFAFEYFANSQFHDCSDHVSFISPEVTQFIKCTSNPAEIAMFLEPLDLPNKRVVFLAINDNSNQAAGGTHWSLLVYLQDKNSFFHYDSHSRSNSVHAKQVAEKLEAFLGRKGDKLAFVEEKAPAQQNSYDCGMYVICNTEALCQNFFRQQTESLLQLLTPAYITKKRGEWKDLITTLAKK

[18] = toxicity toward HepG2 liver cells – cell-based, plate reader, cherry-pick, antagonist series, cytotoxicity control, dose response (AID 743416); format: functional
HEK293 = assay: EBV LMP1 TES2 canonical NF-kB signalling blockers – cell-based, HEK293, luciferase, cherry-pick, dose response (AID 588343); format: functional; settings: Homo sapiens
[19] = A549 cell cytotoxicity, dose response, cytotoxicity control, plate reader, cherry-pick, antagonist series (AID 743412); format: functional, cell-based
[20] = target: T5, Sentrin-specific protease 7 (Homo sapiens, UniProt Q9BQF6); format: functional;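 further: Luminescence-based dose-response confirmation of ultra-high-throughput screening hits, measuring inhibition of SENP7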
T5 sequence (Q9BQF6 whole entry): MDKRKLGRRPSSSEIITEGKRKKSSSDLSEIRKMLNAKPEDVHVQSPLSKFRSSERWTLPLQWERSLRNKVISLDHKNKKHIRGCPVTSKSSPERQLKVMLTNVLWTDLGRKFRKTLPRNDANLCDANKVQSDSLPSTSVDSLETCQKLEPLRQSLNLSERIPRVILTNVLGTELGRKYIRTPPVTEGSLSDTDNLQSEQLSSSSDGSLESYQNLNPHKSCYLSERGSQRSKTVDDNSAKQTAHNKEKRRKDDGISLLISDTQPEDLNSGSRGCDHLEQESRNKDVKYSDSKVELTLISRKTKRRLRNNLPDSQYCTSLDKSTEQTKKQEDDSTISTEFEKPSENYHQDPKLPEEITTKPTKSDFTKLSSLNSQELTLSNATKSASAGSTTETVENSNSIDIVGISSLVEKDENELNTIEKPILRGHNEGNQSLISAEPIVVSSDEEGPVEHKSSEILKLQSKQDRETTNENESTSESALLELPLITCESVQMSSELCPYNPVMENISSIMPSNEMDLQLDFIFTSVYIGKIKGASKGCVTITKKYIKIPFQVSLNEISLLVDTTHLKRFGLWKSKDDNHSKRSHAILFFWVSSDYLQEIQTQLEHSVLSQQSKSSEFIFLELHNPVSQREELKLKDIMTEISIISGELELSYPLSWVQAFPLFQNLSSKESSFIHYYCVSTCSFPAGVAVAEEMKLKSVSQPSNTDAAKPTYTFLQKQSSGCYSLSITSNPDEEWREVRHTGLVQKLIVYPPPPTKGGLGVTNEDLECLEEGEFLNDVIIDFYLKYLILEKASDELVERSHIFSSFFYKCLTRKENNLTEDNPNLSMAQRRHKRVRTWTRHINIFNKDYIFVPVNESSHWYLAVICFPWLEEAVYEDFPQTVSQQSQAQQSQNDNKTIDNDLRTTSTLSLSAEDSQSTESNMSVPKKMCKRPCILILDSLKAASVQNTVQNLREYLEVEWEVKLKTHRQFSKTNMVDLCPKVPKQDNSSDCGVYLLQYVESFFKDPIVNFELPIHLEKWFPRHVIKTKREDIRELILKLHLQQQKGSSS

[21] = blockade of melanocortin 4 receptor signaling – cell-based, plate reader, cherry pick, counter-screen for LGR2 antagonist project, dose response (AID 743444); format: functional;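 further: transfected HEK 293 cells stimulated with alpha-MSH peptide; potency of inhibitors of the alpha-MSH evoked signal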
[22] = blockers of bursicon-stimulated LGR2 cAMP reporter – cell-based, HEK293, CRE-luciferase reporter, cherry pick, set 2, dose response (AID 743343); format: functional;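 further: transfected cells were stimulated with diluted bursicon conditioned medium after compound addition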
[23] = target: T6, Sentrin-specific protease 6 (Homo sapiens, UniProt Q9GZR1); format: functional;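 further: Luminescence-based dose-response confirmatory assay of SENP6 inhibition, following up an ultra-high-throughput screen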
T6 sequence (Q9GZR1 whole entry): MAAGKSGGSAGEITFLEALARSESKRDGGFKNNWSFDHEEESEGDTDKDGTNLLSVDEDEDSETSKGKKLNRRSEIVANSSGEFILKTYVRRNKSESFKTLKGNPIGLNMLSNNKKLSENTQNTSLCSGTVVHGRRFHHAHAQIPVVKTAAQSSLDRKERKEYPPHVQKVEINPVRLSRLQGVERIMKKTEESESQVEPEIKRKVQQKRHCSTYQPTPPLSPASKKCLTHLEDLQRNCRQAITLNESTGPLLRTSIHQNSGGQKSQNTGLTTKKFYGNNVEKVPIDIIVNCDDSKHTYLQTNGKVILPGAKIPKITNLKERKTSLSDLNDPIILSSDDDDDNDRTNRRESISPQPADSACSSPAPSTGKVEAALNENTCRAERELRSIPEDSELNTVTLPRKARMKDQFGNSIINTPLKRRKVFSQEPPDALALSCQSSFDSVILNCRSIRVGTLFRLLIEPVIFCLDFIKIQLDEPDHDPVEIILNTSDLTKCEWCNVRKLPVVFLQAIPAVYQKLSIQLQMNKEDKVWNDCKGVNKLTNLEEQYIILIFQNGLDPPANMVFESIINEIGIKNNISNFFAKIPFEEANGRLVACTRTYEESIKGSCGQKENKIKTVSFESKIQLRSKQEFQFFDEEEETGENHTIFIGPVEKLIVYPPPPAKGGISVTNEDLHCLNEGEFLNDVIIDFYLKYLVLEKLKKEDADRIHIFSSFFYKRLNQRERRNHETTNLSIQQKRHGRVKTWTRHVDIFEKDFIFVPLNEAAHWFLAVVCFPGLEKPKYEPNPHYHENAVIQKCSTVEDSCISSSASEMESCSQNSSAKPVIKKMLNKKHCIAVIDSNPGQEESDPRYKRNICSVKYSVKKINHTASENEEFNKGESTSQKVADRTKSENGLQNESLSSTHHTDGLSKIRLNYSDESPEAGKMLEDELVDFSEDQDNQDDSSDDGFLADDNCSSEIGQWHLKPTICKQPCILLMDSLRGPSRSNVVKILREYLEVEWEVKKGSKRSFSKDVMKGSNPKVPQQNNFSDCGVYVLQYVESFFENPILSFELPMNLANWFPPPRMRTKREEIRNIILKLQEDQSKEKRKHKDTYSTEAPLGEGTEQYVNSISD

Caspase-3 = target: T7, Caspase-3 (Homo sapiens, UniProt P42574); format: functional;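 further: Dose-response selectivity test against caspase-3 for candidate inhibitors of sentrin-specific proteases (SENPs)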
T7 sequence (P42574 whole entry): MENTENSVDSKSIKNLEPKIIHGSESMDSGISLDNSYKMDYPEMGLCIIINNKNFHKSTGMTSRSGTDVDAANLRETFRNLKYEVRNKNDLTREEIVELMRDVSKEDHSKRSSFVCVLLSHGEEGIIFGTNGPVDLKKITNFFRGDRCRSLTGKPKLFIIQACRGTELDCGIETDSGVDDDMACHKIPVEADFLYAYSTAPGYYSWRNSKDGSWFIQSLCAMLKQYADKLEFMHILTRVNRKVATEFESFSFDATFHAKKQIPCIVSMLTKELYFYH

[24] = alpha-synuclein stem-loop luciferase translation blockers – H4 neuroglioma cells, luminescence, confirmation (AID 1988); format: functional, cell-based
[25] = target: Photoreceptor-specific nuclear receptor (Homo sapiens, UniProt Q9Y5X4); format: functional, cell-based;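 further: CHO-S cells with Gal4-NCOR and VP16-NR2E3 two-hybrid luciferase reporter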
Photoreceptor-specific nuclear receptor, sequence (Q9Y5X4 whole entry, the tested form may be a part): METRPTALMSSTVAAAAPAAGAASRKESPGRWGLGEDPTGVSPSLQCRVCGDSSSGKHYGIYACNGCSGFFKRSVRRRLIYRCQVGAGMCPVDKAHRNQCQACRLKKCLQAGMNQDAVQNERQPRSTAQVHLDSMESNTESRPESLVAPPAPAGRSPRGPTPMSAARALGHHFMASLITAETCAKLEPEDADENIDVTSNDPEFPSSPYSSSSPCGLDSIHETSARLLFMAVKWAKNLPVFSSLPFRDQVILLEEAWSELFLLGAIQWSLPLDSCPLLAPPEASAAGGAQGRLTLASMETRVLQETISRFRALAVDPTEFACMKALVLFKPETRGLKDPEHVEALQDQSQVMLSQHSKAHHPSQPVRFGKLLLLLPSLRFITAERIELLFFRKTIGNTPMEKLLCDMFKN

T1 sequence (P65502 whole entry): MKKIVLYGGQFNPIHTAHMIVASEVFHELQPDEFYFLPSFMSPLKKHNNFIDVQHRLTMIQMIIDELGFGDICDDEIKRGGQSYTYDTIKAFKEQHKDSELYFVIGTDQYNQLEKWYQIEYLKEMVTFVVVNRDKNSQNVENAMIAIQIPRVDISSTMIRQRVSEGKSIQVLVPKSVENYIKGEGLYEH

CCC(C)n1c(=O)c(C(=O)Nc2ccccc2S(N)(=O)=O)c(O)c2ccccc21 (stereo not drawn)
IC50 [1]: 41.1 µM (active)
IC50 [2]: 5.92 µM (active)

CC1CCC(NC(=O)c2cccc(S(=O)(=O)N3CCN(c4ccccc4)CC3)c2)CC1 (stereo not drawn)
IC50 (Protein Wnt-3a): 28.3 µM (inactive)

CC(CC(=O)N1CCN(c2cccc(Cl)c2)CC1)S(=O)(=O)c1ccc2c(c1)NC(=O)CO2 (stereo not drawn)
AC50 (INS1): 5.65 µM (active)
AC50 [3]: 34.7 µM (active)
AC50 [4]: 5.37 µM (active)
IC50 (Protein Wnt-3a): 15.1 µM (active)
AC50 [5]: 3.99 µM (active)

COc1cc2c(cc1/C=C/[N+](=O)[O-])OCO2
AC50 [6]: 8.98 µM (active)
EC50 (BJ [7]): 8.89 µM (inconclusive)
EC50 [8]: 8.55 µM (active)
EC50 [9]: 6.07 µM (active)
AC50 [10]: 4.25 µM (active)
IC50 [11]: 3.19 µM (active)
EC50 (BJ [12]): 11.5 µM (inconclusive)
EC50 (BJ [13]): 8.52 µM (inconclusive)

CC(CNC(=O)CCCn1ncn2c(cc3occc32)c1=O)c1ccccc1 (stereo not drawn)
AC50 [14]: 785 nM (active)

Cc1ccc(/C=C/c2nc(O)c3ccccc3n2)cc1
AC50 [15]: > 52 µM (inactive)
EC50 [16]: 14.8 µM (active)
IC50 [17]: 1.5 µM (active)
AC50 [18]: > 52 µM (inactive)
AC50 (HEK293): 1.88 µM (active)
AC50 [19]: > 52 µM (inactive)
IC50 [20]: 788 nM (active)
AC50 [21]: 2.45 µM (active)
AC50 [22]: 2.73 µM (active)
IC50 [23]: 961 nM (active)
IC50 (Caspase-3): 999 nM (active)
EC50 [24]: 4.45 µM (inconclusive)

O=C(CSc1nnc(SCc2ccccc2)s1)N/N=C/C=C/c1ccco1
IC50 [1]: 27.6 µM (active)
IC50 [2]: 12 µM (active)

COc1ccc(C)cc1NC(=O)c1nnn(Cc2cccc(C(F)(F)F)c2)c1N
IC50 [25]: 39.8 µM (inactive)

Cc1ccc(-c2nn(CCC(=O)Nc3cccnc3)c(=O)c3ccccc23)cc1
AC50 [14]: 148 nM (active)
